Assay results: PubChem BioAssay AID1996
Converted amounts (≈) assume the structure as drawn.

Conditions: buffer; pH 7.4; 200.0 µM
With Cc1cnc(C(=O)OCC(=O)N(CC(C)C)C2CCS(=O)(=O)C2)cn1 (configuration not stated) the solubility kinetic was > 55.4 µg/mL. CCCC(=O)Nc1ccccc1NC(=O)c1ccc(OC(C)=O)cc1 gave a solubility kinetic of 47.5 µg/mL (≈ 140 µM). For CCOCCCNC(=O)C1CCN(S(=O)(=O)N2CCCC2)CC1, the solubility kinetic was > 52.1 µg/mL. In the case of COC(=O)c1ccc(NC(=O)c2cc[n+]([O-])cc2)cc1, the solubility kinetic is reported as > 40.8 µg/mL. With CSCC(=O)Nc1ccc(F)c(Cl)c1 the solubility kinetic was > 35.1 µg/mL. For Cc1cc(=O)[nH]c(SCc2cn3ccccc3n2)n1, the solubility kinetic was > 40.8 µg/mL. Work on Cc1scc(C(=O)N2CCN(c3ccc(Cl)cc3)CC2)c1C yielded a solubility kinetic of 23.3 µg/mL (≈ 69.6 µM). In the case of CN(C)S(=O)(=O)c1ccc(NC(=S)NC(=O)C2CCC2)cc1, the solubility kinetic is reported as 12.5 µg/mL (≈ 36.6 µM). Cc1cccc(NC(=O)COC(=O)c2ccccn2)c1 gave a solubility kinetic of 34.9 µg/mL (≈ 129 µM). O=C1CC(c2cccs2)Cc2nc(NC(=O)C3CC3)ncc21 (configuration not stated) gave a solubility kinetic of 45.5 µg/mL (≈ 145 µM). Br.CC(=O)c1cccc(Nc2nc(-c3ccccc3)cs2)c1 gave a solubility kinetic of 2.1 µg/mL. For O=S(=O)(NC1CC1)c1ccc(F)c(F)c1, the solubility kinetic was > 35 µg/mL. Cc1ccc(NS(=O)(=O)c2ccc(C(C)C)cc2)cc1S(=O)(=O)N1CCOCC1 gave a solubility kinetic of 27.4 µg/mL (≈ 62.5 µM). With CC(=O)c1cccc(NC(=O)C2C3C=CC(C3)C2C(=O)O)c1 (configuration not stated) the solubility kinetic was > 44.9 µg/mL. In the case of CN(Cc1ccccc1F)C(=O)c1ccccc1Sc1ccccc1C#N, the solubility kinetic is reported as 17 µg/mL (≈ 45.2 µM). For CN1C(=O)CSC1=Nc1ccc(F)cc1, the solubility kinetic was 28.7 µg/mL (≈ 128 µM). In the case of O=C(c1ccccn1)N1CCN(S(=O)(=O)c2ccccc2)CC1, the solubility kinetic is reported as > 49.7 µg/mL. O=C(OCc1cc(Cl)cc2c1OCOC2)c1cccnc1Cl showed a solubility kinetic of 8.5 µg/mL (≈ 25 µM). For O=S(=O)(NCc1ccco1)c1ccc2ccccc2c1, the solubility kinetic was 11.3 µg/mL (≈ 39.3 µM). For Cc1cc(N(C)C)nc(Nc2ccccc2)n1, the solubility kinetic was > 34.2 µg/mL. For O=S(=O)(NC1CCCCC1N1CCC(O)CC1)c1ccccc1 (configuration not stated), the solubility kinetic was > 50.8 µg/mL. In the case of CC1CC(C)CN(C(=O)C(C)N2CCN(S(=O)(=O)c3ccccc3F)CC2)C1 (configuration not stated), the solubility kinetic is reported as 51.7 µg/mL (≈ 126 µM). With CC(=O)NCCc1nc2ccccc2n1CCOc1ccccc1C the solubility kinetic was > 50.6 µg/mL. With CCOc1ccc(NC2=NCCCS2)cc1 the solubility kinetic was > 35.4 µg/mL. For O=[N+]([O-])c1[nH]cnc1/C=C/c1ccccc1, the solubility kinetic was 1.8 µg/mL (≈ 8.36 µM). For Clc1cccc(C2CCN(Cc3nc(CC4CC4)no3)C2)c1 (configuration not stated), the solubility kinetic was 12.3 µg/mL (≈ 38.7 µM). Compound Cc1ccc(S(=O)(=O)N2CCOCC2)cc1C(=O)Nc1nc(-c2ccccn2)cs1 has a solubility kinetic of 23.9 µg/mL (≈ 53.8 µM). With COc1ccccc1C(=O)OCC(=O)NC1CCCC1 the solubility kinetic was > 41.6 µg/mL. In the case of O=C(CCNC(=O)c1ccccc1Cl)NCC1CCCO1 (configuration not stated), the solubility kinetic is reported as > 46.6 µg/mL. For Nc1cc(=O)[nH]c(SCC(=O)N2CCCC2)n1, the solubility kinetic was > 38.1 µg/mL. For CCCn1c(SCC(=O)N2CC(=O)Nc3ccccc32)n[nH]c1=O, the solubility kinetic was > 52.1 µg/mL. Work on Fc1ccccc1CNc1nc(-c2cccnc2)nc2ccccc12 yielded a solubility kinetic of 9 µg/mL (≈ 27.2 µM). For CCN(C(=O)c1cccnc1SC)C12CC3CC(CC(C3)C1)C2, the solubility kinetic was 2.3 µg/mL (≈ 6.96 µM). Compound Clc1ccc(SCc2csc(N3CCOCC3)n2)cc1 has a solubility kinetic of 10.2 µg/mL (≈ 31.2 µM). Compound CCc1cc(C(=O)N2CCN(c3ccccn3)CC2)sc1C has a solubility kinetic of 43 µg/mL (≈ 136 µM). With Cc1ccc(N2CC(C(=O)Nc3cc(C)on3)CC2=O)c(C)c1 (configuration not stated) the solubility kinetic was > 47 µg/mL. For O=[N+]([O-])c1ccccc1/C=C/CN1CCC(O)CC1, the solubility kinetic was 29.2 µg/mL (≈ 111 µM). For Cc1ccc(Sc2ccc(S(=O)(=O)Nc3ccc(C(=O)O)cc3)cc2)cc1C, the solubility kinetic was > 62 µg/mL. For CN(C)S(=O)(=O)c1cccc(NC(=O)C2CCN(S(=O)(=O)c3cccs3)CC2)c1, the solubility kinetic was 23.4 µg/mL (≈ 51.1 µM). In the case of COc1cccc(-n2ccnc2SCC(=O)Nc2cc(C)on2)c1, the solubility kinetic is reported as 37.5 µg/mL (≈ 109 µM). Compound CCCNS(=O)(=O)c1cc2c3c(c1)C(C)C(=O)N3CCC2 (configuration not stated) has a solubility kinetic of 40.3 µg/mL (≈ 131 µM). For Cc1ccc2c(C)cc(=S)[nH]c2c1, the solubility kinetic was 7.1 µg/mL (≈ 37.5 µM). Compound Cc1ccccc1C(=O)NCC(C)NC(=O)c1ccccc1C (configuration not stated) has a solubility kinetic of 42.4 µg/mL (≈ 137 µM). Compound CCOc1ccc2nc(NC(=O)CN3CCN(CC)CC3)sc2c1 has a solubility kinetic of 47.6 µg/mL (≈ 137 µM). CCc1cc2ccc(C)cc2nc1SCC(=O)NC1CCCC1 showed a solubility kinetic of 1.2 µg/mL (≈ 3.65 µM). Cc1cc([N+](=O)[O-])ccc1NC(=S)NC1CCCC1 gave a solubility kinetic of 21.9 µg/mL (≈ 78.4 µM). With CN1CCN(C(=O)c2ccc(C(F)(F)F)cc2)CC1.Cl the solubility kinetic was > 46.3 µg/mL. For O=C(OCC(=O)N1CCCC1=O)c1cc(Cl)ccc1O, the solubility kinetic was > 44.7 µg/mL. Compound CC1(C)CC(NS(=O)(=O)c2ccc(F)cc2)CC(C)(C)N1 has a solubility kinetic of 47.1 µg/mL (≈ 150 µM). With CCC(NC(=O)C1CCCO1)c1ccccc1 (configuration not stated) the solubility kinetic was > 35 µg/mL. With CCc1c(C(=O)N2CCCN(C)CC2)csc1C the solubility kinetic was > 40 µg/mL. CC(C(=O)NC1CCCCCC1)c1ccc([N+](=O)[O-])cc1 (configuration not stated) showed a solubility kinetic of 7.1 µg/mL (≈ 24.5 µM). Work on O=C(COc1ccccc1[N+](=O)[O-])Nc1ccc2c(c1)OCO2 yielded a solubility kinetic of 1.7 µg/mL (≈ 5.38 µM). For O=C(CSc1nccc(=O)[nH]1)c1ccco1, the solubility kinetic was > 35.4 µg/mL. Work on O=C(CC1CCCC1)Nc1cccc(Br)c1 yielded a solubility kinetic of 18.1 µg/mL (≈ 64.1 µM). With O=C(/C=C/c1ccc([N+](=O)[O-])cc1)Nc1cccc(S(=O)(=O)NC2=NCCCCC2)c1 the solubility kinetic was 11.5 µg/mL (≈ 26 µM). Work on O=C(Nc1ccccn1)c1ccc(C(=O)Nc2ccccn2)cc1 yielded a solubility kinetic of 0.5 µg/mL (≈ 1.57 µM). Cc1nc(-c2cccc(Br)c2)ccc1C(=O)O showed a solubility kinetic of 43.2 µg/mL (≈ 148 µM). In the case of O=C(c1cccs1)N1CCN(C23CC4CC(CC(C4)C2)C3)CC1, the solubility kinetic is reported as > 49.6 µg/mL. In the case of O=C(COC(=O)C1CCCCC1)NCc1ccc(Cl)cc1, the solubility kinetic is reported as 31.7 µg/mL (≈ 102 µM). In the case of O=C(O)c1ccc(OCC(F)(F)F)nc1, the solubility kinetic is reported as > 33.2 µg/mL. For COc1ccc(CSc2nc(O)cc(=O)n2CC(C)C)cc1F, the solubility kinetic was > 50.8 µg/mL. For NC1=NC(=O)C(Cc2ccccc2)S1 (configuration not stated), the solubility kinetic was > 30.9 µg/mL. COc1ccc(NC(=O)c2ccc(N3CCOCC3)nc2)cc1 gave a solubility kinetic of 6.3 µg/mL (≈ 20.1 µM). With O=C(CSc1ccccn1)N1CCNC1=O the solubility kinetic was > 35.6 µg/mL. With Cc1cccc(OC(=O)c2cccnc2)c1C the solubility kinetic was 25 µg/mL (≈ 110 µM). In the case of CNC(=O)c1cc2cc(Br)ccc2s1, the solubility kinetic is reported as 8.1 µg/mL (≈ 30 µM). For CC(=O)Nc1cccc(Oc2nc(-c3ccccn3)nc3ccccc23)c1, the solubility kinetic was 0.8 µg/mL (≈ 2.24 µM). In the case of Cc1cccc(NC(=O)OC2CN3CCC2CC3)c1 (configuration not stated), the solubility kinetic is reported as > 39.1 µg/mL. In the case of O=C(Cc1cccc(C(F)(F)F)c1)NCc1cccnc1, the solubility kinetic is reported as > 44.1 µg/mL. C=Cc1ccc(N=Cc2c(O)ccc3ccccc23)cc1 showed a solubility kinetic of 0.9 µg/mL (≈ 3.29 µM). With O=C(Nc1nc2ccccc2c(=O)s1)c1ccc(F)cc1Cl the solubility kinetic was 0.9 µg/mL (≈ 2.69 µM). With C=CCNc1nnc(Sc2ncccc2[N+](=O)[O-])s1 the solubility kinetic was > 44.3 µg/mL. Compound OCCCNc1nc(-c2ccccc2)c2cc(Cl)ccc2n1 has a solubility kinetic of 21.5 µg/mL (≈ 68.5 µM). For COc1ccc(-c2cc(C(=O)Nc3ccc(F)cc3F)no2)cc1, the solubility kinetic was < 0.4 µg/mL. With CC(CNC(=O)COC(=O)c1cccs1)c1ccccc1 (configuration not stated) the solubility kinetic was > 45.5 µg/mL. With O=c1[nH]c(=O)n(C2CCCO2)cc1F (configuration not stated) the solubility kinetic was 29.9 µg/mL (≈ 149 µM). Compound COc1ccc(S(=O)(=O)NCc2cccnc2)cc1Br has a solubility kinetic of 35.5 µg/mL (≈ 99.4 µM). For COc1ccccc1NS(=O)(=O)c1cc(N)ccc1N1CCCC1, the solubility kinetic was 21.4 µg/mL (≈ 61.6 µM). Compound Cc1ccccc1-c1nc(CN2CCSCC2)c(C)o1 has a solubility kinetic of 26.1 µg/mL (≈ 90.5 µM). C=CCN1C(=O)/C(=C/c2cc(C)n(-c3cccnc3)c2C)C(=O)NC1=S gave a solubility kinetic of 12.9 µg/mL (≈ 35.2 µM). In the case of COc1ccc(C)cc1S(=O)(=O)NNc1nc(C)cc(C)n1, the solubility kinetic is reported as > 48.4 µg/mL. With O=C(COC(=O)c1cc(=O)c2ccccc2o1)Nc1ccccc1F the solubility kinetic was > 51.2 µg/mL. For Cc1nn(CC(=O)NCc2cccc(F)c2)c(=O)c2cccn12, the solubility kinetic was > 47.1 µg/mL. With CC(NC(=O)CCC(=O)NCc1ccc(F)cc1)c1ccccc1 (configuration not stated) the solubility kinetic was > 49.3 µg/mL. With Cc1ccccc1NC(=O)c1c(C)cc(=O)oc1C the solubility kinetic was > 38.6 µg/mL. For Cc1ccc(Cl)cc1NS(=O)(=O)c1cn(C)nc1C, the solubility kinetic was > 45 µg/mL.
